According to patent US10456439B2, “NK3 agonist for use in the treatment of a patient suffering from atrial arrhythmia or fibrillation” (priority 2014, dated 2019):
Entries after “also recorded” stand apart in the source; their conditions may differ. Where a SMILES comes first, the peptide text is derived from it.

Legend:
Murine NK3 receptor [1] = target: T1, Murine NK3 receptor (Mus musculus, UniProt P47937); settings: read-out: Binding (Inhibition of [125I]-[MePhe7]neurokinin B) Murine NK3 receptor, Ki; HEK 293-murine NK3 receptor cells; mean ± SEM; cited from earlier work
T1 construct: expressed in transfected cells; host or cells: HEK 293
T1 sequence (P47937 1-452): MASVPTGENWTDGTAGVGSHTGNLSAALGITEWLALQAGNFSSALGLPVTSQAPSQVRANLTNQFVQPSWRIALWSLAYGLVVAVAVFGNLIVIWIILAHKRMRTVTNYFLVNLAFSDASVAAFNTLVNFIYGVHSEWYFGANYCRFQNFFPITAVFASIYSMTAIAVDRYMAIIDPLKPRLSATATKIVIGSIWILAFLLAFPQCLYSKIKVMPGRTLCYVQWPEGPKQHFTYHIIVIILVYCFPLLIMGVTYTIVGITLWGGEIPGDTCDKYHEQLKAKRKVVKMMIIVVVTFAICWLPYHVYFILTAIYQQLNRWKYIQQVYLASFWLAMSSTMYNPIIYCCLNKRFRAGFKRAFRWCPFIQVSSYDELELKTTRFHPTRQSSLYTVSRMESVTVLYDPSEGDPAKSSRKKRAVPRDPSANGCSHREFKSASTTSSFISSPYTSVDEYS

rabbit atrial myocytes = test: Action potential recording (perforated patch clamp) in rabbit atrial myocytes; settings: increasing concentrations, result in words
Experimental: (§2) Male New Zealand White specified pathogen free rabbits (2.5-3.5 kg) were anaesthetized with a combination of 20 mg xylazine and 100 mg ketamine (intramuscularly) and heparinized with a bolus of 1000 IU heparin (intravenously). Subsequently, the animals were killed by 200 mg pentobarbital intravenously, after which the heart was quickly excised and mounted on a langendorff perfusion apparatus. […] Single atrial cells were isolated from the left atrium using the same protocol with a modification consisting of complementing the enzymatic solution with 6.6 pg/mL protease.
(§3) Small aliquots of single cell suspension were introduced into a recording chamber on the stage of an inverted microscope. Cells were allowed to adhere for 5 minutes after which superfusion was started. Single quiescent rod-shaped myocytes with clear cross-striations and smooth surfaces were selected for measurements.
(§4) Voltage control, data acquisition, and analysis were performed using custom-made software.
(§5) Potentials were corrected for liquid junction potential [3]. Signals were low-pass filtered (cut-off frequency: 5 kHz) and digitized at 40 kHz. Cell membrane capacitance (Cm) was estimated by dividing the decay time constant of the capacitive transient in response to 5 mV hyperpolarizing voltage clamp steps from a holding potential of −40 mV, by the series resistance.
(§6) APs were measured with the amphotericin-B-perforated patch clamp technique using normal Tyrode's solution containing (in mM): NaCl 140, KCl 5.4, CaCl2 1.8, MgCl2 1.0, glucose 5.5, HEPES 5.0, pH 7.4 (NaOH). The patch-pipettes (borosilicate glass; 1-3 MΩ) were filled with a ‘standard’ solution containing (in mM): K-gluconate 110, KCl 30, NaCl 5, MgCl2 1, amphotericin-B 0.22, HEPES 10, pH 7.3 (KOH).
(§7) APs were elicited at 2 Hz by 2-ms (1.5×diastolic stimulation threshold) current pulses applied through the patch pipette. […] Values obtained from 10 consecutive APs were averaged.
(§8) The NK-agonists were applied in a cumulative sequence with 5 minutes intervals between increments in concentration. Effects were assessed after equilibration, but not earlier than 3 minutes after application.

[2] = system: left atrium of Langendorff-perfused rabbit heart; test: Left atrial effective refractory period in Langendorff-perfused rabbit hearts
Experimental: (§1) After the heart was excised, it was cannulated, quickly mounted on a Langendorff perfusion set-up, and perfused at 37° C. with a solution containing (in mmol/L) 128 NaCl, 4.7 KCl, 1.45 CaCl2), 0.6 MgCl2, 27 NaHCO3, 0.4 NaH2PO4, and 11 glucose (pH maintained at 7.4 by equilibration with a mixture of 95% 02 and 5% CO2). The left atrium (ventricle) was stimulated at a basic cycle length of 200 ms, and twice the diastolic stimulus current threshold. […] The effective refractory period was defined as the longest S1-S2 interval failing to produce atrial (ventricular) activation.

[3] = system: human left atrial appendage (LAA); test: Effective refractory period in human left atrial appendages; settings: basic cycle length 600 ms
Description: Left atrial appendages (LAA) were routinely removed from patients with atrial fibrillation receiving PVI (pulmonary vein isolation) ablation. The LAAs were removed using an endoscopic stapling device (Endo Gia stapler, Tyco Healthcare Group). The tissue samples were transported in 100-mL cooled superfusion fluid (Na^+, 155.5 mmol/L; K^+, 4.7 mmol/L; Ca^2+, 1.45 mmol/L; Mg^2+, 0.6 mmol/L; Cl^−, 136.6 mmol/L; HCO3^−, 27 mmol/L; PO4^3−, 0.4 mmol/L; glucose, 11.1 mmol/L; and heparin, 1000 IE) and submerged in a tissue bath. The superfusion fluid was kept at a stable temperature of 36.5° C. to 37.5° C. and oxygenized with a mixture of 95% O2 and 5% CO2 to maintain a pH of 7.4. LAAs were stimulated at 100 beats per minute at 2-3 times diastolic threshold with a pulse width of 2 ms using an epicardial electrode.
The effective refractory period was defined as the longest S1-S2 interval failing to produce atrial (ventricular) activation.

[4] = system: left atrium of anesthetized rabbit; test: In vivo left atrial effective refractory period in the anesthetised rabbit; settings: single bolus 11 nmol/kg, basic cycle length 220 ms, control 110 ms
Experimental: Male New Zealand White rabbits were anesthetized with ketamine 50 mg/kg and xylazine 8 mg/kg (and additionally 0.09 mg/kg Temgesic for pain relief) subcutaneously, intubated, and artificially ventilated. Anesthesia was maintained by isoflurane (0.8-1.2%). Catheters for drug infusions and blood pressure recording were inserted into marginal ear veins/arteries. Following thoracotomy, the pericardium was opened to expose the heart. A stimulation- and recording-electrode were placed on the left atrium for epicardial electrophysiological study. The left atrium was stimulated at a basic cycle length of 220 ms, and twice the diastolic stimulus current threshold. […] The effective refractory period was defined as the longest S1-S2 interval failing to produce atrial activation. Approximately 30 minutes after the completion of the preparation when the rabbit was hemodynamically and electrophysiologically stable, control measurements were undertaken.

[5] = system: ventricle of Langendorff-perfused rabbit heart; test: Ventricular effective refractory period in Langendorff-perfused rabbit hearts; settings: 20-50 nM Senktide
Experimental: as §1

Murine NK3 receptor [6] = target: T1, Murine NK3 receptor; settings: HEK 293-murine NK3 receptor cells; mean ± SEM; read-out: Ca2+ Mobilization Murine NK3 receptor, EC50; cited from earlier work
[7] = system: rabbit ventricular myocytes; test: Action potential recording (perforated patch clamp) in rabbit ventricular myocytes; settings: 2 Hz, 1-10 μM substance P or 100 nM Senktide
Experimental: as §2, §3, §4, §5, §6, §7, §8

In the case of `CSCC[C@H](NC(=O)[C@H](CC(C)C)NC(=O)CNC(=O)[C@H](Cc1ccccc1)N(C)C(=O)[C@H](Cc1ccccc1)NC(=O)[C@H](CC(=O)O)NC(=O)CCC(=O)O)C(N)=O` [Senktide, N-(3-carboxy-1-oxopropyl)-L-α-aspartyl-L-phenylalanyl-N-methyl-L-phenylalanylglycyl-L-leucyl-L-methioninamide] (HELM PEPTIDE1{[O=C(O)CCC(=O)[*:2]].D.F.[meF].G.L.M.[am]}$$$$V2.0), the Ki (Murine NK3 receptor [1]) is listed as 11.9 ± 2.1 nM, the “Effect on atrial action potential (AP) duration” value (rabbit atrial myocytes) is listed as “significantly prolongs the AP duration” and the “Longest S1-S2 interval that fails to produce atrial activation (A-ERP)” value ([2]; 750 nM Senktide, basic cycle length 200 ms, control 80 ms) is listed as 100 ms. For the same compound, the “Effect on atrial effective refractory period, in words” value ([2]; Langendorff-perfused rabbit heart) was “prolongs the atrial refractory period”, the “Prolongation of the S1-S2 interval measured in the left atrium” value ([2]; Langendorff-perfused rabbit heart, difference to control) was 20 ms and the “Longest S1-S2 interval that fails to produce atrial activation (ERP) in human LAA” value ([3]; 50 nM Senktide, control 290 ms) was 440 ms. The “Effective refractory period in human LAA after wash out” value ([3]; wash out after 50 nM Senktide) was 320 ms, the “Longest S1-S2 interval that fails to produce atrial activation (A-ERP) in vivo” value [4] was 160 ms and the “Effect on ventricular effective refractory period (V-ERP)” value [5] was “not affected”. The EC50 (Murine NK3 receptor [6]) was 0.15 ± 0.09 nM and the “Effect on ventricular action potential (AP) duration” value [7] was “absence of effect; also recorded: does not prolong the AP”.
